In patent publication US20250213525A1, “Atopic Dermatitis Improving Agent, Interleukin Production Inhibitor, and Inhibitor of Expression of Interleukin Gene” (PIAS CORPORATION, priority 2022, published 2025):

Key:
Format in all cases: cell-based
[1] = tested on: interleukin-33 (IL-33) gene; assay: Inhibition of IL-33 gene expression in PMA-stimulated NHEK (real time PCR); conditions: Normal Human Epidermal Keratinocytes, PMA 25 ng/mL, 3 hours, compound 10 to 20 μM, GAPDH internal standard; FIG. 1 and FIG. 4
Procedure: The following provides the details of in vitro tests. 6×10^4 cells of Normal Human Epidermal Keratinocytes (NHEK manufactured by KURABO INDUSTRIES LTD.) were seeded on a 12 well plate and cultured at 37° C. under 5% CO2 conditions for 72 hours. The incubation medium was removed and then replaced by a culture medium including the following inflammatory stimulating substance (final concentration: 25 ng/mL) and the individual compound used in each of the above Test Examples, followed by further culturing at 37° C. under 5% CO2 conditions for 3 hours. Thereafter, total RNA was purified from cells according to the instruction manual of product name “PureLink RNA Mini kit” (INVITROGEN), and RNA purified using the test kit “ReverTra Ace™ qPCR RT Master Mix (manufactured by TOYOBO CO., LTD.)” was reverse-transcribed to cDNA. For the cDNA, IL-33 mRNA expression level was quantitatively evaluated by a real time PCR method. Glyceraldehyde-3-phosphate dehydrogenase (GAPDH) was used as an internal standard calibration. The compounds used in Test Examples were dissolved in dimethyl sulfoxide (DMSO) to prepare the individual stocks, and then respectively dissolved in the culture media to have a concentration of 10 to 20 μM. At this time, dilution was performed to allow DMSO to have a concentration (1% or less) at which no cytotoxicity is caused. […]

[2] = tested on: interleukin-1α (IL-1α) gene; assay: Inhibition of IL-1α gene expression in PMA-stimulated NHEK (real time PCR); conditions: Normal Human Epidermal Keratinocytes, PMA 25 ng/mL, 3 hours, compound 10 to 20 μM, GAPDH internal standard; FIG. 2 and FIG. 5
[3] = tested on: interleukin-1β (IL-1β) gene; assay: Inhibition of IL-1β gene expression in PMA-stimulated NHEK (real time PCR); conditions: Normal Human Epidermal Keratinocytes, PMA 25 ng/mL, 3 hours, compound 10 to 20 μM, GAPDH internal standard; FIG. 3 and FIG. 6

CCCCCCCCCCCCCCCC(=O)OC[C@H](O)[C@H]1OC(=O)C(OCC(O)CO)=C1O (stereo partly drawn) [2-O-glyceryl-6-O-hexadecanoyl ascorbic acid]
inhibited: IL-33 mRNA expression level [1] | expression of interleukin-1α (IL-1α) gene [2] | expression of interleukin-1β (IL-1β) gene [3]
